Data from patent publication US20210127673A1, “HERBICIDES” (SYNGENTA PARTICIPATIONS AG, priority 2016, published 2021).

What was measured:
Format in all cases: in vivo
Zea Mays (ZEAMX) [1] = assay: Post-emergence herbicidal activity, Zea Mays; parameters: key: 5=total damage to plant; 0=no damage to plant; details: 1000 g/ha, evaluated after 13 days, Test 2b
Description: (§1) Seeds of a variety of test species were sown in standard soil in pots: Triticum aestivium (TRZAW), Avena fatua (AVEFA), Alopecurus myosuroides (ALOMY), Echinochloa crus-galli (ECHCG), Lolium perenne (LOLPE), Zea Mays (ZEAMX), Abutilon theophrasti (ABUTH), Amaranthus retroflexus (AMARE) and Setaria faberi (SETFA). After 8 days cultivation (post-emergence) under controlled conditions in a glasshouse (at 24/16° C., day/night; 14 hours light; 65% humidity), the plants were sprayed with an aqueous spray solution derived from the formulation of the technical active ingredient in acetone/water (50:50) solution containing 0.5% Tween 20 (polyoxyethelyene sorbitan monolaurate, CAS RN 9005-64-5). The test plants were then grown in a glasshouse under controlled conditions (at 24/16° C., day/night; 14 hours light; 65% humidity) and watered twice daily. After 13 days, the test was evaluated (5=total damage to plant; 0=no damage to plant).

[2] = test system: Abutilon theophrasti (ABUTH); assay: Pre-emergence herbicidal activity, Abutilon theophrasti; parameters: key: 5=total damage to plant; 0=no damage to plant; details: 1000 g/ha, evaluated after 13 days, Test 1b
Description: (§2) Seeds of a variety of test species were sown in standard soil in pots: Triticum aestivium (TRZAW), Avena fatua (AVEFA), Alopecurus myosuroides (ALOMY), Echinochloa crus-galli (ECHCG), Lolium perenne (LOLPE), Zea Mays (ZEAMX), Abutilon theophrasti (ABUTH), Amaranthus retroflexus (AMARE) and Setaria faberi (SETFA). After cultivation for one day (pre-emergence) under controlled conditions in a glasshouse (at 24/16° C., day/night; 14 hours light; 65% humidity), the plants were sprayed with an aqueous spray solution derived from the formulation of the technical active ingredient in acetone/water (50:50) solution containing 0.5% Tween 20 (polyoxyethelyene sorbitan monolaurate, CAS RN 9005-64-5). The test plants were then grown in a glasshouse under controlled conditions (at 24/16°, day/night; 14 hours light; 65% humidity) and watered twice daily. After 13 days, the test was evaluated (5=total damage to plant; 0=no damage to plant).

[3] = test system: Echinochloa crus-galli (ECHCG); assay: Pre-emergence herbicidal activity, Echinochloa crus-galli; parameters: key: 5=total damage to plant; 0=no damage to plant; details: 1000 g/ha, evaluated after 13 days; for ECHCG damage score (0-5): Test 1b
Outline: (§3)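 First, seeds were sown in standard soil and held one day under glasshouse conditions. Next, soil was sprayed with the active ingredient formulated in 50:50 acetone/water plus 0.5% Tween 20. Plants then grew at 24/16 °C day/night with 14 h light and 65% humidity before evaluation after 13 days.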

[4] = test system: Amaranthus retroflexus (AMARE); assay: Pre-emergence herbicidal activity, Amaranthus retroflexus; parameters: key: 5=total damage to plant; 0=no damage to plant; details: 1000 g/ha, evaluated after 13 days, Test 1b
Description: as §2

[5] = test system: Amaranthus retroflexus (AMARE); assay: Post-emergence herbicidal activity, Amaranthus retroflexus; parameters: key: 5=total damage to plant; 0=no damage to plant; details: 1000 g/ha, evaluated after 13 days, Test 2b
Description: as §1

Lolium perenne (LOLPE) [6] = assay: Post-emergence herbicidal activity, Lolium perenne; parameters: key: 5=total damage to plant; 0=no damage to plant; details: 1000 g/ha, evaluated after 13 days; for LOLPE damage score (0-5): Test 2b
Outline: (§4)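 Post-em, 8 d plants, pots; acetone:water 1:1 + 0.5% Tween 20 spray; 24/16 °C, 14 h photoperiod, 65% RH; 13 d readout, 0–5 phytotoxicity scale.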

Setaria faberi (SETFA) [7] = assay: Post-emergence herbicidal activity, Setaria faberi; parameters: key: 5=total damage to plant; 0=no damage to plant; details: 1000 g/ha, evaluated after 13 days; for SETFA damage score (0-5): Test 2b
Outline: as §4

Lolium perenne (LOLPE) [8] = assay: Pre-emergence herbicidal activity, Lolium perenne; parameters: key: 5=total damage to plant; 0=no damage to plant; details: 1000 g/ha, evaluated after 13 days; for LOLPE damage score (0-5): Test 1b
Outline: as §3

Zea Mays (ZEAMX) [9] = assay: Pre-emergence herbicidal activity, Zea Mays; parameters: key: 5=total damage to plant; 0=no damage to plant; details: 1000 g/ha, evaluated after 13 days, Test 1b
Description: as §2

Setaria faberi (SETFA) [10] = assay: Pre-emergence herbicidal activity, Setaria faberi; parameters: key: 5=total damage to plant; 0=no damage to plant; details: 1000 g/ha, evaluated after 13 days; for SETFA damage score (0-5): Test 1b
Outline: as §3

[11] = test system: Echinochloa crus-galli (ECHCG); assay: Post-emergence herbicidal activity, Echinochloa crus-galli; details: 1000 g/ha, evaluated after 13 days; for ECHCG damage score (0-5): Test 2b
Outline: as §4

[12] = test system: Abutilon theophrasti (ABUTH); assay: Post-emergence herbicidal activity, Abutilon theophrasti; parameters: key: 5=total damage to plant; 0=no damage to plant; details: 1000 g/ha, evaluated after 13 days, Test 2b
Description: as §1

[13] = test system: Alopecurus myosuroides (ALOMY); assay: Pre-emergence herbicidal activity, Alopecurus myosuroides; parameters: key: 5=total damage to plant; 0=no damage to plant; details: 1000 g/ha, evaluated after 13 days
Outline: as §3

Avena fatua (AVEFA) [14] = assay: Post-emergence herbicidal activity, Avena fatua; details: 1000 g/ha, evaluated after 13 days
Outline: as §4

Avena fatua (AVEFA) [15] = assay: Pre-emergence herbicidal activity, Avena fatua; details: 1000 g/ha, evaluated after 13 days
Outline: as §3

[16] = test system: Triticum aestivium (TRZAW); assay: Pre-emergence herbicidal activity, Triticum aestivium; parameters: key: 5=total damage to plant; 0=no damage to plant; details: 1000 g/ha, evaluated after 13 days
Outline: as §3

[17] = test system: Alopecurus myosuroides (ALOMY); assay: Post-emergence herbicidal activity, Alopecurus myosuroides; details: 1000 g/ha, evaluated after 13 days
Outline: as §4

[18] = test system: Triticum aestivium (TRZAW); assay: Post-emergence herbicidal activity, Triticum aestivium; details: 1000 g/ha, evaluated after 13 days
Outline: as §4

Compound	ZEAMX damage score (0-5) (Zea Mays (ZEAMX) [1])	ABUTH damage score (0-5) [2]	ECHCG damage score (0-5) [3]	AMARE damage score (0-5) [4]	AMARE damage score (0-5) [5]	LOLPE damage score (0-5) (Lolium perenne (LOLPE) [6])	SETFA damage score (0-5) (Setaria faberi (SETFA) [7])	LOLPE damage score (0-5) (Lolium perenne (LOLPE) [8])	ZEAMX damage score (0-5) (Zea Mays (ZEAMX) [9])	SETFA damage score (0-5) (Setaria faberi (SETFA) [10])	ECHCG damage score (0-5) [11]	ABUTH damage score (0-5) [12]	other results
Cc1nc(-c2cncc(OC(F)F)c2)ccc1NC(=O)OC(C)(C)C [Compound B13]	5	0	2	0	1	2	5	1	2	3	3	0	
CCN(C(=O)OC(C)(C)C)c1ccc(-c2cncc(F)c2)nc1C(F)(F)F [Compound B14]	4	4	0	0	0	1	4	0	0	0	2	0	
CCOC(=O)Nc1ccc(-c2cncc(F)c2)nc1C(F)(F)F [Compound B15, ethyl N-[6-(5-fluoro-3-pyridyl)-2-(trifluoromethyl)-3-pyridyl]carbamate]	5	0	1	0	1	2	4	0	4	4	3	0	
CC(C)OC(=O)Nc1ccc(-c2cncc(F)c2)nc1C(F)(F)F [Compound B16, isopropyl N-[6-(5-fluoro-3-pyridyl)-2-(trifluoromethyl)-3-pyridyl]carbamate]	5	0	3	0	0	3	5	1	5	4	4	0	
CN(C(=O)OC(C)(C)C)c1ccc(-c2cncc(C(F)(F)F)c2)nc1C(F)(F)F [Compound B17]	1	0	0	0	0	0	1	0	0	0	1	0	
Cc1cncc(-c2ccc(N(C)C(=O)OC(C)(C)C)c(C(F)(F)F)n2)c1 [Compound B18]	2	1	0	1	0	1	3	0	0	1	2	0	
Cc1nc(-c2cncc(F)c2)ccc1NC(=O)OC(C)(C)C [Compound B19]	5	1	4	1	2	4	5	3	5	4	4	1	
Cc1nc(-c2cncc(C#N)c2)ccc1NC(=O)OC(C)(C)C [Compound B20]	4	0	5	1	1	3	5	1	5	4	4	0	
COc1cncc(-c2ccc(N(C)C(=O)OC(C)(C)C)c(C(F)(F)F)n2)c1 [Compound B21]	2	1	0	1	0	1	3	0	0	1	2	0	
CN(C(=O)OC(C)(C)C)c1ccc(-c2cccnc2)nc1C(F)(F)F [Compound B22]	2	1	3	1	0	3	4	1	0	4	4	0	
COc1cncc(-c2ccc(NC(=O)OC(C)(C)C)c(C)n2)c1 [Compound B23]	5	1	1	1	1	2	3	1	1	4	2	1	
C=CCN(C(=O)N(C)C)c1ccc(-c2cncc(F)c2)nc1C(F)(F)F [Compound B123]													Control of ALOMY after pre-emergence application (score 0-5) [13]: 0; Control of ECHCG after pre-emergence application (score 0-5) [3]: 3; Control of LOLPE after post-emergence application (score 0-5) (Lolium perenne (LOLPE) [6]): 1; Control of AVEFA after post-emergence application (score 0-5) (Avena fatua (AVEFA) [14]): 2; Control of SETFA after post-emergence application (score 0-5) (Setaria faberi (SETFA) [7]): 5; Control of LOLPE after pre-emergence application (score 0-5) (Lolium perenne (LOLPE) [8]): 1; Control of SETFA after pre-emergence application (score 0-5) (Setaria faberi (SETFA) [10]): 5; Control of AVEFA after pre-emergence application (score 0-5) (Avena fatua (AVEFA) [15]): 1; Control of ECHCG after post-emergence application (score 0-5) [11]: 3; Control of TRAZW after pre-emergence application (score 0-5) [16]: 0; Control of ALOMY after post-emergence application (score 0-5) [17]: 2; Control of TRAZW after post-emergence application (score 0-5) [18]: 1
